This is an account of results in patent US5462926A (Biomeasure, Inc., priority 1993, dated 1995).

As usually defined, the IC50 is the concentration needed to halve the response being measured. Usually Kd stands for the equilibrium constant for the complex coming apart.

Where two headings read alike, the source gives them in different places. Where a SMILES comes first, the peptide text is derived from it. Bridges are numbered along the chain shown (N, C = ends). Where no end group is shown, it is not given here. [ ]: non-standard residue; d: D form. 2Nal = N[C@@H](Cc1ccc2ccccc2c1)C(=O)O; Lys(Et2) = CCN(CC)CCCC[C@H](N)C(=O)O

Assay [1] deals with T1, NMB receptors on C-6 cells (Rattus norvegicus, UniProt P24053).
T1 construct: endogenous in cells; host or cells: rat glioblastoma C-6 cells
T1 sequence (P24053 1-390): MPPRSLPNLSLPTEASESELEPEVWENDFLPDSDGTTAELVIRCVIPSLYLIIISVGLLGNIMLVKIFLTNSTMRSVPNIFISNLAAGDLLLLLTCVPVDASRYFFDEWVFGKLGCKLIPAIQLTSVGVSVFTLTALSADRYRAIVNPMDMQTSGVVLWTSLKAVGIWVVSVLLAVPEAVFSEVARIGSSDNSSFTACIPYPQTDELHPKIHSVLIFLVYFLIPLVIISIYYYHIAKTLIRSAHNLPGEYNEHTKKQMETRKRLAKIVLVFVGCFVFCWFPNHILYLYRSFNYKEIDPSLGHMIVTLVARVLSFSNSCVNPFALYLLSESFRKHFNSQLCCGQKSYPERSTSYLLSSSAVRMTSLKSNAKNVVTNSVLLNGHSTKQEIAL
In words: Binding of 125I-[D-Tyr0]NMB to C-6 glioblastoma cells. Conditions: Ki by Cheng method, read-out: Ki 125I-NMB Binding, NMB Receptor, C-6 Cells. As for the experimental part:
Binding of ^125 I-[D-Tyr^0 ]NMB to C-6 glioblastoma and NMB-R transfected cells
Binding studies using rat glioblastoma C-6 or NMB-R transfected cells were performed as described previously [Benya, R. V. et al. Mol. Pharmacol. 42:1058 (1992); and Wang, L-H. et al. Biochem. J. 286:641 (1992)] by suspending disaggregated cells in binding buffer, which was composed of standing buffer ([…], 7.7 mM KCl, 1.0 mM EGTA, 0.02% soybean trypsin inhibitor) additionally containing 50 mM HEPES, 1 mM MgCl2, 1.5 mM CaCl2, 2.2 mM KH2 PO4, 0,015% glutamine, and 0.2% BSA (w/v) (pH 7.4). Incubations contained 75 pM ^125 I-[D-Tyr^0 ]NMB and 15×10^6 C-6 cells/ml or 2×10^6 NMB-R transfected cells/ml, for 60 min at 22° C. Nonsaturable binding of ^125 I-[D-Tyr^0 ]NMB was the amount of radioactivity associated with C-6 cells or NMB-R transfected cells when the incubation mixture contained […] NMB. Nonsaturable binding was<15% of total binding in all experiments; all values are reported herein as saturable binding (i.e., total minus nonsaturable binding).

The target in assay [2] is T2, NMB receptor (Rattus norvegicus, UniProt P24053).
T2 sequence (P24053 1-390): T1 sequence (P24053 1-390)
Nature of the assay: [3H]inositol phosphates in NMB-R transfected cells (alone or NMB-stimulated). Type of assay: cell-based. Also on record: a full length NMB-preferring bombesin receptor clone generated from rat esophagus; expressed in transfected cells. The conditions noted are these: NMB-R transfected cells; for IC50: 3 nM NMB. As for the experimental part:
As described previously [Wada, E., et al. Neuron 6:421 (1991)], BALB 3T3 cells expressing a stably transfected rat NMB receptor (NMB-R transfected cells) were obtained using calcium phosphate precipitation of a full length NMB-preferring bombesin receptor clone generated from rat esophagus and subcloned into a modified version of the pCD2 plasmid. Cells were passaged every 3-4 days at confluence, using 0.1% trypsin in 1 mM EDTA. Rat glioblastoma C-6 tumor cells were maintained similarly and were passaged weekly at confluence. Both cell lines were cultured at 37° C. in a 5% CO2 atmosphere. Rat AR 42J pancreatic acinar cells were cultured in Dulbecco's modified Eagle's medium (DMEM) without antibiotics and supplemented with 10% (vol/vol) fetal calf serum. The incubation atmosphere consisted of 10% CO2 -90% humidified air at 37° C.
Measurement of phosphoinositides
Total phosphoinositides in C-6 cells and in NMB-R transfected cells were determined as described previously, with minor modifications [Benya, R. V. et al. Mol. Pharmacol. 42:1058 (1992); and Wang, L-H. et al. Biochem. Jo 286:641 (1992)]. Cells were grown to confluence in 24-well plates and then loaded with 100 μCi/ml myo-[2-^3 H]inositol in Dulbecco's modified essential medium with 2% fetal bovine serum at 37° C. for 48 hrs. Cells were washed and incubated in phosphoinositide buffer (standard buffer additionally containing 10 mM LiCl, 20 mM HEPES, 2 mM CaCl2, 2% BSA, and 1.2 mM MgSO4) for 15 min and then for 60 min at 37° C. with agonists at various concentrations or with 3 nM NMB (a half-maximal effective concentration) and possible antagonists at different concentrations. Reactions were halted using ice-cold 1% HCl in methanol, and the inositol phosphates (IP) were isolated as described previously [Bologna, M. et al. Cancer 63:1714 (1989); and Endo, T. et al. J. Endocrinolo 131:313 (1991)]. Briefly, after loading of the anion exchange column, free [^3 H]glycerophosphorylinositol was removed by washing with 5 mM disodium tetraborate in 60 mM sodium formate. Total [^3 H]inositol phosphates were then eluted using 100 mM formic acid in 1.0M ammonium formate as described previously [Benya, R. V. et al. Mol. Pharmacol. 42:1058 (1992); and Wang, L-H. et al. Biochem. J. 286:641 (1992 )].

The target of assay [3] is T3, GRP receptors on rat pancreatic acini (Rattus norvegicus, UniProt P52500).
T3 construct: from tissue; host or cells: dispersed pancreatic acini
In words: Binding of 125I-[Tyr4]bombesin to pancreatic acini. Conditions: read-out: Ki 125I-[Tyr4]Bn Binding, GRP Receptor, Rat Pancreatic Acini; Ki by Cheng method.
Description: Nonsaturable binding was<10% of total binding in all experiments.

The next assay concerns the target T4, rat NMB receptor (Rattus norvegicus, UniProt P24053).
T4 construct: a full length NMB-preferring bombesin receptor clone generated from rat esophagus; expressed in transfected cells
T4 sequence (P24053 1-390): T1 sequence (P24053 1-390)
In words: Binding of 125I-[D-Tyr0]NMB to NMB-R transfected BALB 3T3 cells. As for the experimental part:
Cells were passaged every 3-4 days at confluence, using 0.1% trypsin in 1 mM EDTA. Rat glioblastoma C-6 tumor cells were maintained similarly and were passaged weekly at confluence. Both cell lines were cultured at 37° C. in a 5% CO2 atmosphere. Rat AR 42J pancreatic acinar cells were cultured in Dulbecco's modified Eagle's medium (DMEM) without antibiotics and supplemented with 10% (vol/vol) fetal calf serum. The incubation atmosphere consisted of 10% CO2 -90% humidified air at 37° C.

Assay [4] addresses T5, GRP receptor (Rattus norvegicus, UniProt P52500). In words: Amylase release from rat pancreatic acini (alone or Bn-stimulated). The assay is classed as cell-based. Also on record: from tissue; host or cells: dispersed pancreatic acini. As for the experimental part:
pancreatic acini or [^3 H]myo[2H]inositolloaded NMBR transfected cell
were incubated either with no additives, the somatostatin octapeptide
analog, Bn, or NMB, or a combination for 30 min at 37° C.. Amylase
release from pancreatic acini was expressed at the indicated percent of
the total cellular amylase released during the incubation. [^3 H]IP i
expressed in dpm's. To test for inhibitory effects, the effect of
somatostatin analog (10 μM) was determined on 0.3 nM Bnstimulated

Another assay addresses T6, mu opioid receptors (Rattus norvegicus, UniProt P33535).
T6 construct: rat forebrain (TRH, mu and delta opioid membrane assays); from tissue; host or cells: rat forebrain membranes
Nature of the assay: Mu opioid membrane assay, [3H]DAGO, rat forebrain membranes. Type of assay: binding. Conditions: Cheng method; unit inferred; read-out: affinity, [3H]DAGO, Rat Forebrain membranes (mu opioid receptors).

The target of a further assay is T7, somatostatin receptors (Rattus norvegicus, UniProt P30680).
T7 construct: endogenous in cells; host or cells: rat AR 42J pancreatic acinar tumor cell membranes
Nature of the assay: Somatostatin membrane receptor assay, 125I-[Tyr11]SS-14, AR 42J cell membranes. The assay is classed as binding. Conditions: Cheng method; table prints no unit (b360 gives nM for a Table 4 value); read-out: affinity, 125I-[Tyr11]SS-14, AR 42J Cell Membranes (somatostatin receptors).

The target of assay [5] is T2, NMB receptor. In words: NMB membrane receptor assay, 125I-NMB, rat olfactory bulb membranes. Type of assay: binding. Also on record: Membranes were prepared from rat olfactory bulb (NMB membrane receptor assay); from tissue; host or cells: rat olfactory bulb membranes. The conditions noted are these: Cheng method; unit inferred; read-out: affinity, 125I-NMB, Rat Olfactory bulb membranes (neuromedin B receptors).

The target in assay [6] is T5, GRP receptor. Nature of the assay: GRP membrane receptor assay, 125I-[Tyr4]Bn, AR 42J cell membranes. Type of assay: binding. Also on record: endogenous in cells; host or cells: rat AR 42J pancreatic acinar tumor cell membranes. Conditions: read-out: affinity, 125I-[Tyr4]Bn, AR 42J Cell Membranes (GRP receptors); Cheng method; unit inferred.

T5 sequence (P52500 whole entry): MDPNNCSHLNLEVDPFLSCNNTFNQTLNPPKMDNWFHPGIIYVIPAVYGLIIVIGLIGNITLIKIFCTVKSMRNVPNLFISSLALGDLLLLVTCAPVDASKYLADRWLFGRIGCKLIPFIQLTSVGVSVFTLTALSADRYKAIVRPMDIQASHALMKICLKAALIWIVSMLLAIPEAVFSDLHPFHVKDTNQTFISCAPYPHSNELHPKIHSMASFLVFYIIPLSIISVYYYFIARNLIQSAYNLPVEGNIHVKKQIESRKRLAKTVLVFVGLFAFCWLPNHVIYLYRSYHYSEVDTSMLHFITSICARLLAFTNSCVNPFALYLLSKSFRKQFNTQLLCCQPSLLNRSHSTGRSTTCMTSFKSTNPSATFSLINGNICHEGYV
T7 sequence (P30680 whole entry): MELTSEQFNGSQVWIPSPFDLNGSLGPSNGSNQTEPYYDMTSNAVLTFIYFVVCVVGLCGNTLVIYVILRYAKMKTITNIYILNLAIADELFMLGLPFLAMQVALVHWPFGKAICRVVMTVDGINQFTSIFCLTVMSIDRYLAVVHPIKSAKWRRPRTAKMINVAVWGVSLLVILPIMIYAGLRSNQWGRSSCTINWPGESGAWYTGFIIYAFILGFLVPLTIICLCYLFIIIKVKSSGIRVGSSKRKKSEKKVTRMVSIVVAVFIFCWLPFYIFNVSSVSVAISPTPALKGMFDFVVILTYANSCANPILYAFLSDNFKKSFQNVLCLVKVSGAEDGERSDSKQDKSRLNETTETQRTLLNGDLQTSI
T6 sequence (P33535 whole entry): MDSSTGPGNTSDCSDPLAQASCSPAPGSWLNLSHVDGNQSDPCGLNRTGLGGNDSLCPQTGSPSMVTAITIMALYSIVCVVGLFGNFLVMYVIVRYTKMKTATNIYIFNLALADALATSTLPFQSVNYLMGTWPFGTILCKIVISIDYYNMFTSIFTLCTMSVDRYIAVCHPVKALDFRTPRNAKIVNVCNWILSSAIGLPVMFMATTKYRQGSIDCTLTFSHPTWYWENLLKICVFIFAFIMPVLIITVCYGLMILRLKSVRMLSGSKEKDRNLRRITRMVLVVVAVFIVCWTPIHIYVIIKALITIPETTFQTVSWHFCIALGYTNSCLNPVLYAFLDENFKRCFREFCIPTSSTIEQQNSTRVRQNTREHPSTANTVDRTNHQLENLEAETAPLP
T3 sequence (P52500 whole entry): as the sequence (P52500 whole entry) above

Turning to `CCN(CC)CCCC[C@@H]1NC(=O)[C@@H](Cc2c[nH]c3ccccc23)NC(=O)[C@H](Cc2ccc(O)cc2)NC(=O)[C@@H](NC(=O)[C@H](N)Cc2ccccc2)CSSC[C@@H](C(=O)N[C@@H](Cc2ccc3ccccc3c2)C(N)=O)NC(=O)[C@H]([C@@H](C)O)NC1=O` [Analog #16, H2 -D-Phe-Cys-Tyr-D-TrP-Lys(diEt)-Thr-Cys-Nal-NH2] (H-[dF]CY[dW][Lys(Et2)]TC[2Nal]-NH2; disulfide 2-7), the Ki in [1] is 1.09 ± 0.038 µM; in assay [3], above 10 µM; on rat NMB receptor (NMB-R transfected BALB 3T3 cells, Ki by Cheng method, read-out: Ki 125I-NMB Binding, NMB Receptor, Transfected Cells) it was 3.95 ± 0.509 µM; on rat NMB receptor (NMB-R transfected cells, value or range given for a group, read-out: K1, 125I-NMB binding to NMB-R transfected cells (text)), 3.9 to 4.4 µM. For the same compound, the IC50 at NMB receptor [2] (read-out: IC50 NMB-stimulated [3H]IP, NMB Receptor, Transfected Cells) was 7.21 ± 2.79 µM; on NMB receptor [2] (read-out: IC50 NMB-stimulated [3H]IP, Transfected Cells (values in μM)) it was 7.2 to 9.8 µM; on GRP receptor [4] (read-out: IC50 Amylase Release, GRP Receptor, Rat Pancreatic Acini), above 10 µM. Besides, at NMB receptor [2] (analog 10 μM alone, control 13 ± 3), the “[3H]IP, analog Alone (10 μM)” value was 11 ± 2 dym × 10^3. The “[3H]IP, analog Plus NMB (3 nM)” value at NMB receptor [2] (analog 10 μM plus NMB 3 nM, NMB without analog 186 ± 58) is reported as 73 ± 15 dym × 10^3. For the same compound, at rat NMB receptor (NMB-R transfected cells), the “fold by which cyclo SS-octa is more potent than the analog, 125I-NMB binding” value amounted to 18 fold. Besides, the “Amylase Release, analog Alone (10 μM)” value on GRP receptor [4] (analog 10 μM alone, control 4 ± 1) was 5 ± 1 % total. The “Amylase Release, analog Plus Bn (0.3 nM)” value at GRP receptor [4] (analog 10 μM plus Bn 0.3 nM, Bn without analog 15 ± 1) is given as 12 ± 1 % total.
In the case of `CSCC[C@H](NC(=O)[C@H](Cc1ccccc1)NC(=O)[C@H](Cc1c[nH]cn1)NC(=O)CNC(=O)[C@@H](NC(=O)[C@H](C)NC(=O)[C@H](Cc1c[nH]c2ccccc12)NC(=O)[C@H](CC(C)C)NC(=O)[C@H](CC(N)=O)NC(=O)CN)[C@@H](C)O)C(N)=O` [NMB, neuromedin B, reference compound], the Ki on mu opioid receptors is above 10 µM; on somatostatin receptors it was above 10000 nM; on NMB receptor [5], 0.0011 ± 0.0002 µM; at GRP receptor [6] it was 0.019 ± 0.001 µM. Also, the Kd on rat NMB receptor (NMB-R transfected cells, read-out: Kd of NMB for NMB receptors without cyclo SS-octa) worked out at 0.0031 ± 0.0002 µM.
For “gastrin-releasing peptide (VPLPAGGGTVLTKMYPRGNHWAVGHLM; ends and bridges not checked; UniProt P07492 24-50, looked up) [GRP, mammalian bombesin-related peptide, from Peninsula Laboratories, reference compound]”, the Ki in the assay with mu opioid receptors is above 10 µM; in the assay with somatostatin receptors, above 10000 nM; in the assay with NMB receptor [5] it was 0.297 ± 0.015 µM.
